Square brackets hold non-standard residues; d marks the D form. Peptide text beside a SMILES is read from it. * marks the point of attachment. Propionyl = CCC(=O)*; Mpa = O=C(O)CCS
What follows are molecules tested against Stromelysin-1 (MMP-3) (Rattus norvegicus) (UniProt P03957) (assay: Compound was tested for its inhibitory activity against Matrix metalloprotease-3 (MMP-3) in adjuvant arthritic rat model of rheumatoid arthritis).
Chain of Stromelysin-1 (MMP-3) (Rattus norvegicus) (P03957 whole entry, looked up): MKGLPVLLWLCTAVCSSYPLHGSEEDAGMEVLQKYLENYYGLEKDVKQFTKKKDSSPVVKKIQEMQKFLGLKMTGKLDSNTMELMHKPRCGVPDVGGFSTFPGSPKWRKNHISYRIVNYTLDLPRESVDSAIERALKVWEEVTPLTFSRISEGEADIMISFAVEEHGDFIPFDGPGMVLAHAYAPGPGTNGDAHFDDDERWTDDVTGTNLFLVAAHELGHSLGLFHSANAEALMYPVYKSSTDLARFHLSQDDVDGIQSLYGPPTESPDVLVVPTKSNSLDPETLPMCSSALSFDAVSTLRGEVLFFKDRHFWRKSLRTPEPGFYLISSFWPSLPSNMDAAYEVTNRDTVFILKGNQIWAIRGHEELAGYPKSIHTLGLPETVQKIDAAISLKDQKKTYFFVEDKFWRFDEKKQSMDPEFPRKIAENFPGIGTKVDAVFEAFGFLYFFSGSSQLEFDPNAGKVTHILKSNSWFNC

IC50 [nM]	Compound
430	CNC(=O)[C@H](Cc1c[nH]c2ccccc12)NC(=O)[C@H](CC(C)C)NC(=O)CS [(S)-2-(2-Mercapto-acetylamino)-4-methyl-pentanoic acid [(S)-2-(1H-indol-3-yl)-1-methylcarbamoyl-ethyl]-amide]
430	CNC(=O)[C@H](Cc1cscn1)NC(=O)[C@H](CC(C)C)NC(=O)CS [(S)-2-(2-Mercapto-acetylamino)-4-methyl-pentanoic acid ((S)-1-methylcarbamoyl-2-thiazol-4-yl-ethyl)-amide]
810	CNC(=O)[C@H](Cc1c[nH]c2ccccc12)NC(=O)[C@H](CSC)NC(=O)CS [(R)-N-[(S)-2-(1H-Indol-3-yl)-1-methylcarbamoyl-ethyl]-2-(2-mercapto-acetylamino)-3-methylsulfanyl-propionamide]

Molecular target: Stromelysin-1 (MMP-3) (Rattus norvegicus) (UniProt P03957)
Assay: as above
Remark: another data set of the same source

IC50 [nM]	Compound
2600	CNC(=O)[C@H](Cc1ccccc1)NC(=O)[C@H](CC(C)C)NC(=O)CS [(S)-2-(2-Mercapto-acetylamino)-4-methyl-pentanoic acid ((S)-1-methylcarbamoyl-2-phenyl-ethyl)-amide]
> 100000	CCC(=O)N[C@@H](CC(C)C)C(=O)N[C@@H](Cc1ccccc1)C(=O)NC [(S)-4-Methyl-2-propionylamino-pentanoic acid ((S)-1-methylcarbamoyl-2-phenyl-ethyl)-amide] (Propionyl-Leu-Phe-NHMe)
8500	CNC(=O)[C@H](Cc1ccccc1)NC(=O)[C@H](C[S+](C)[O-])NC(=O)CS (stereo partly drawn) [(R)-2-(2-Mercapto-acetylamino)-3-methanesulfinyl-N-((S)-1-methylcarbamoyl-2-phenyl-ethyl)-propionamide]
> 100000	CNC(=O)[C@H](Cc1ccccc1)NC(=O)[C@@H](NC(=O)CS)C(C)O (stereo partly drawn) [(S)-3-Hydroxy-2-(2-mercapto-acetylamino)-N-((S)-1-methylcarbamoyl-2-phenyl-ethyl)-butyramide]
650	CNC(=O)[C@H](Cc1ccccc1)NC(=O)[C@H](CSC)NC(=O)CS [(R)-2-(2-Mercapto-acetylamino)-N-((S)-1-methylcarbamoyl-2-phenyl-ethyl)-3-methylsulfanyl-propionamide]
> 100000	CNC(=O)[C@H](Cc1ccccc1)NC(=O)[C@H](CC(C)C)NC(=O)CCS [(S)-2-(3-Mercapto-propionylamino)-4-methyl-pentanoic acid ((S)-1-methylcarbamoyl-2-phenyl-ethyl)-amide] ([Mpa]-Leu-Phe-NHMe)
> 100000	CNC(=O)[C@H](Cc1ccccc1)NC(=O)[C@H](CC(C)C)NC(=O)CSC [(S)-4-Methyl-2-(2-methylsulfanyl-acetylamino)-pentanoic acid ((S)-1-methylcarbamoyl-2-phenyl-ethyl)-amide]

From BindingDB's records for doi:10.1016/S0960-894X(97)00125-X (1997)
